Activity calls are given as the source filed them. The calls are words filed in the database; no cut-off is given here.
Columns and labels:
[1] = target: 3',5'-cyclic-AMP phosphodiesterase 4D (Homo sapiens, UniProt Q08499); test: Inhibition of PDE4D7 (unknown origin) using FAM-cyclic-3',5'-AMP as substrate at 10 nM incubated for 1 hrs by fluorescence polarization based IMAP assay relative to control
[2] = system: SH-SY5Y; test: Cytotoxicity against human SH-SY5Y cells assessed as reduction in cell viability incubated for 48 hrs by MTT assay; type: toxicity, cell-based
[3] = Acute toxicity in C57BL/6J mouse assessed as poisoning symptoms at 1 g/Kg, po administered for 14 days; type: organism-based; settings: in vivo, 1000 mg/kg, 336 h, time 14 day
[4] = Selectivity ratio for inhibition of PDE8A1 (unknown origin) using FAM-cyclic-3',5'-AMP as substrate to inhibition of PDE4B1 (unknown origin) using FAM-cyclic-3',5'-AMP as substrate
[5] = target: High affinity 3',5'-cyclic-AMP phosphodiesterase 7A (Homo sapiens) (UniProt Q13946); test: Inhibition of PDE7A (unknown origin) using FAM-cyclic-3',5'-AMP as substrate at 10 uM incubated for 1 hrs by fluorescence polarization based IMAP assay relative to control
Chain of High affinity 3',5'-cyclic-AMP phosphodiesterase 7A (Homo sapiens) (Q13946 whole entry): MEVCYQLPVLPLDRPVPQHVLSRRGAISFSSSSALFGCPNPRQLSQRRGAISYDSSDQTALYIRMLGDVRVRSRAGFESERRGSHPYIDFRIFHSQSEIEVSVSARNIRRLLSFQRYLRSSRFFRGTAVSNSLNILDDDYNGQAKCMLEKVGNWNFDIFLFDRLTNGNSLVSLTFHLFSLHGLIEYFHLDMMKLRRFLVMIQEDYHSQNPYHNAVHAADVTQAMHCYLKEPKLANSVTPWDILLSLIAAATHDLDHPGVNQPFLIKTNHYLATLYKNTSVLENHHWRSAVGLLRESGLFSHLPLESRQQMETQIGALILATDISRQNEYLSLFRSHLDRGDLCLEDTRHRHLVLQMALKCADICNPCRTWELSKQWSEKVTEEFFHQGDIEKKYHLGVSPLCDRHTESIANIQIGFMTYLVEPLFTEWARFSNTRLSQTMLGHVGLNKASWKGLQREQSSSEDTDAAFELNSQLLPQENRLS

[6] = target: High affinity cGMP-specific 3',5'-cyclic phosphodiesterase 9A (Homo sapiens) (UniProt O76083); test: Inhibition of PDE9A (unknown origin) using FAM-cyclic-3',5'-AMP as substrate at 10 uM incubated for 1 hrs by fluorescence polarization based IMAP assay relative to control
Chain of High affinity cGMP-specific 3',5'-cyclic phosphodiesterase 9A (Homo sapiens) (O76083 whole entry): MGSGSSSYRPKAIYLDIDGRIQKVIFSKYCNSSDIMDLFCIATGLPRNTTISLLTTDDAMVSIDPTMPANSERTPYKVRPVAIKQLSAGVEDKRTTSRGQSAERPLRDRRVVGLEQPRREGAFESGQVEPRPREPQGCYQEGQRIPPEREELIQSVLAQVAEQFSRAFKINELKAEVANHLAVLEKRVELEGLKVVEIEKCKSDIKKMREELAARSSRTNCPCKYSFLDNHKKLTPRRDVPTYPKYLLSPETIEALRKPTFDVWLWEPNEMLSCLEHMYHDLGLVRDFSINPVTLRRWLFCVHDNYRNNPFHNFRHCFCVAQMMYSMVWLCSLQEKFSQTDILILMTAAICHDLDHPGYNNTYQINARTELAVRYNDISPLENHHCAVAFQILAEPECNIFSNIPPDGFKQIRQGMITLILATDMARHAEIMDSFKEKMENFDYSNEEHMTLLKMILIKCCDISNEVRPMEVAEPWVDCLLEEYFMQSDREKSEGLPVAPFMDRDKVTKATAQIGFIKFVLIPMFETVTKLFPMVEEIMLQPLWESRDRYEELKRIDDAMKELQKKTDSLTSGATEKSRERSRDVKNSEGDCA

[7] = Selectivity ratio for inhibition of PDE3B (unknown origin) using FAM-cyclic-3',5'-AMP as substrate to inhibition of PDE4D7 (unknown origin) using FAM-cyclic-3',5'-AMP as substrate
[8] = Selectivity ratio for inhibition of PDE8A1 (unknown origin) using FAM-cyclic-3',5'-AMP as substrate to inhibition of PDE4D7 (unknown origin) using FAM-cyclic-3',5'-AMP as substrate
[9] = Selectivity ratio for inhibition of PDE9A (unknown origin) using FAM-cyclic-3',5'-AMP as substrate to inhibition of PDE4D7 (unknown origin) using FAM-cyclic-3',5'-AMP as substrate
[10] = Selectivity ratio for inhibition of PDE7A (unknown origin) using FAM-cyclic-3',5'-AMP as substrate to inhibition of PDE4B1 (unknown origin) using FAM-cyclic-3',5'-AMP as substrate
[11] = system: SH-SY5Y; test: Protection against alcohol-induced cytotoxicity in human SH-SY5Y cells assessed as increase in cell viability at 0.25 to 1 uM preincubated with compound for 1 hrs followed by ethanol administration and measured after 24 hrs by CCK8 assay; type: functional, cell-based; settings: dose 0.25-1 µM, time 25.0 hrs
[12] = Drug concentration in Sprague-Dawley rat plasma at 10 mg/kg, po administered as single dose for 2 hrs by LC-MS analysis; type: ADME, organism-based
[13] = Drug concentration in Sprague-Dawley rat liver at 10 mg/kg, po administered as single dose for 1 hrs by LC-MS analysis; type: ADME, organism-based; settings: read-out: Ct
[14] = Drug concentration in Sprague-Dawley rat liver at 10 mg/kg, po administered as single dose for 2 hrs by LC-MS analysis; type: ADME, organism-based; settings: read-out: Ct
[15] = Drug concentration in Sprague-Dawley rat brain at 10 mg/kg, po administered as single dose for 1 hrs by LC-MS analysis; type: ADME, organism-based; settings: read-out: Ct
[16] = Cmax in Sprague-Dawley rat at 2 mg/kg, iv measured after 24 hrs by LC-MS analysis; type: ADME, organism-based; settings: in vivo
[17] = AUC (0 to t) in Sprague-Dawley rat at 2 mg/kg, iv measured after 24 hrs by LC-MS analysis; type: ADME, organism-based; settings: in vivo
[18] = AUC (0 to infinity) in Sprague-Dawley rat at 2 mg/kg, iv measured after 24 hrs by LC-MS analysis; type: ADME, organism-based; settings: in vivo
[19] = Clearance in Sprague-Dawley rat at 2 mg/kg, iv measured after 24 hrs by LC-MS analysis; type: ADME, organism-based; settings: in vivo
[20] = Cmax in Sprague-Dawley rat at 10 mg/kg, po measured after 24 hrs by LC-MS analysis; type: ADME, organism-based; settings: in vivo
[21] = AUC (0 to t) in Sprague-Dawley rat at 10 mg/kg, po measured after 24 hrs by LC-MS analysis; type: ADME, organism-based; settings: in vivo
[22] = AUC (0 to infinity) in Sprague-Dawley rat at 10 mg/kg, po measured after 24 hrs by LC-MS analysis; type: ADME, organism-based; settings: in vivo
[23] = system: Mus musculus; test: Protection against alcohol use disorder in C57BL/6J mouse model assessed as decrease in alcohol preference at 1 to 2.5 mg/kg, po pre-trained with alcohol and water for 42 days with subsequent compound addition on day 22 and measured after 3 weeks by two-bottle choice test; type: functional, organism-based; settings: dose 1-2.5 mg/kg
[24] = system: Mus musculus; test: (§1) Protection against alcohol exposure-induced anxiety like behavior in C57BL/6J mouse model assessed as distance travelled at 1 to 2.5 mg/kg, po pre-trained with alcohol and water for 42 days with subsequent compound addition from day 22 to day 42 followed by 3.5 hrs of darkness and compound administration for 30 mins followed by water replacement with alcohol for 4 hrs and measured 24 hrs after alcohol withdrawal by open field test; type: functional, organism-based; settings: dose 1-2.5 mg/kg
[25] = system: Mus musculus; test: as §1, with “increase in center time” for “distance travelled”; type: functional, organism-based; settings: dose 1-2.5 mg/kg, time 24.0 day
[26] = system: Mus musculus; test: Protection against alcohol-induced sedation in C57BL/6J mouse model assessed as reduction in sleep time at 1 to 2.5 mg/kg, po preadministered with compound every 24 hrs for 3 times followed by alcohol administration 30 mins post last dose; type: functional, organism-based; settings: dose 1-2.5 mg/kg, time 72.5 hrs
[27] = system: Mus musculus; test: (§2) Protection against alcohol-induced motor impairment in C57BL/6J mouse model assessed as short recovery time by measuring latency to falling off at 2.5 mg/kg, po preadministered with compound every 24 hrs for 3 times followed by alcohol administration 30 mins post last dose and further treated with compound for 3 days followed by alcohol administration 30 mins post last dose and measured at 2 to 20 mins by rotarod test; type: functional, organism-based; settings: time 8702-8720 min
[28] = system: Mus musculus; test: as §2, with “increase in distance travelled at 1” for “short recovery time by measuring latency”, “to” for “to falling off at”, “open field” for “rotarod”; type: functional, organism-based; settings: dose 1-2.5 mg/kg, time 8702-8720 min
[29] = system: Mus musculus; test: (§3) Protection against alcoholic liver disease in NIAAA C57BL/6J mouse model assessed as decrease in serum AST level at 1 to 2.5 mg/kg, po preadministered with 1 to 4 % of alcohol for 10 days with subsequent compound addition from day 6 to 11 and further administered with 31.25 % alcohol on day 11 and measured after 9 hrs by absorbance based plate analyzer; type: functional, organism-based; settings: dose 1-2.5 mg/kg, time 5.0 day
[30] = system: Mus musculus; test: as §3, with “improvement of liver injury” for “decrease in serum AST level”, “Oil Red O staining” for “absorbance”, “light microscopic analysis” for “plate analyzer”; type: functional, organism-based; settings: dose 1-2.5 mg/kg, time 5.0 day
[31] = system: Mus musculus; test: as §3, with “reduction” for “decrease”, “IL-6” for “AST”, “ELISA” for “absorbance based plate analyzer”; type: functional, organism-based; settings: dose 1-2.5 mg/kg, time 5.0 day
[32] = system: Mus musculus; test: as §3, with “reduction” for “decrease”, “liver IL-1beta mRNA” for “serum AST”, “RT-qPCR analysis” for “absorbance based plate analyzer”; type: functional, organism-based; settings: dose 1-2.5 mg/kg, time 5.0 day

Chain of 3',5'-cyclic-AMP phosphodiesterase 4D (Q08499 whole entry): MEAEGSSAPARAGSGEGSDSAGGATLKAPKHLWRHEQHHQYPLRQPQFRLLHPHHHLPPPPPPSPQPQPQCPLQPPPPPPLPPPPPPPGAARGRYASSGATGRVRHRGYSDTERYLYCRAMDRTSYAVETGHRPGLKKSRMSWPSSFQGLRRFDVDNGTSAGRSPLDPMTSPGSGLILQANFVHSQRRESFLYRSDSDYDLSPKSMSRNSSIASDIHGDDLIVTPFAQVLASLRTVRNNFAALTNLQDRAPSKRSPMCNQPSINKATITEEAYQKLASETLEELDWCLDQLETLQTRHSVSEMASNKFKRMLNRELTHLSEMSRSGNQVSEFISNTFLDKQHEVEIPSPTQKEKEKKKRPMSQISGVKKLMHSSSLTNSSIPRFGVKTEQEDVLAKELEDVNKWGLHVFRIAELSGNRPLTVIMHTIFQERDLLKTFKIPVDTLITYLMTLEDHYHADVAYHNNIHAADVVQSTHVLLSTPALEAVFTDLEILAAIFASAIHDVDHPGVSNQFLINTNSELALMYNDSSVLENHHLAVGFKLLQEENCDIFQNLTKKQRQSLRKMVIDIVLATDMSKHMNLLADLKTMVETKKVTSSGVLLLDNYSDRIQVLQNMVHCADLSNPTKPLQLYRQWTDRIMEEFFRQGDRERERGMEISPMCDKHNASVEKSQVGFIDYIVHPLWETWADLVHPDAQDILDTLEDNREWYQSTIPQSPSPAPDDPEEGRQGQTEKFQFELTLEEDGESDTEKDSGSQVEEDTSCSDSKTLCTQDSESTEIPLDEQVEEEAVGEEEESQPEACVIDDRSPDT

CCOc1nc(Cl)cc2c1cnn2CCCC(=O)O
inhibition [1]: 21% | Activity [2]: Non-Toxic | Activity [3]: Non-Toxic | Selectivity ratio [4]: > 267 | inhibition [5]: 11% | inhibition [6]: 9% | Selectivity ratio [7]: > 267 | Selectivity ratio [8]: > 267 | Selectivity ratio [9]: > 267 | Selectivity ratio [10]: > 267 | Activity [11]: Active | concentration at 2 h [12]: 27 µg/mL | concentration at 1 h [13]: 11200 ng/g | concentration at 2 h [14]: 8120 ng/g | concentration at 1 h [15]: 322 ng/g | Cmax [16]: 23.2 µg/mL | AUC(0-t) at 24 h [17]: 142 µg·h/mL | AUC(0-inf) [18]: 143 µg·h/mL | clearance [19]: 0.0126 L/h/kg | Cmax [20]: 43.3 µg/mL | AUC(0-t) at 24 h [21]: 669 µg·h/mL | AUC(0-inf) [22]: 828 µg·h/mL | Activity [23]: Active | Activity [24]: Active | Activity [25]: Active | Activity [26]: Active | Activity [27]: Active | Activity [28]: Active | Activity [29]: Active | Activity [30]: Active | Activity [31]: Active | Activity [32]: Active

— ChEMBL document CHEMBL5532675, “Discovery of 4-Ethoxy-6-chloro-5-azaindazoles as Novel PDE4 Inhibitors for the Treatment of Alcohol Use Disorder and Alcoholic Liver Diseases” (J Med Chem, 2024)
